The target in test [1] is T1, NAMPT (Homo sapiens, UniProt P43490).
T1 construct: His tag; host or cells: E. coli
The test is described as follows: Biochemical inhibition assay: NAMPT enzymatic reaction, NMN quantified by mass spectrometry. To be noted: NAMPT enzymatic reaction; read-out: Biochem IC50. The gist of the method:
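Inhibition of E. coli-expressed His-tagged human NAMPT, measured as NMN formation by mass spectrometry after a 30 min room-temperature reaction containing 1 μM NAM, 100 μM PRPP and 2.5 mM ATP.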

In test [2] the test system is A2780 cells. Briefly: In-vitro cell proliferation assay (SRB), A2780 cells. Type of test: cell-based. To be noted: Homo sapiens, A2780, 72 h, A2780 cells, 72 hours, read-out: A2780 IC50. In outline: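 SRB read-out: 6% TCA fix 1 h at 4° C., stain, Tris solubilize, A570. Media-only background subtracted; % inhibition from two compound concentrations.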

Read-outs that look alike come from different tables or passages of the source.

T1 sequence (P43490 whole entry): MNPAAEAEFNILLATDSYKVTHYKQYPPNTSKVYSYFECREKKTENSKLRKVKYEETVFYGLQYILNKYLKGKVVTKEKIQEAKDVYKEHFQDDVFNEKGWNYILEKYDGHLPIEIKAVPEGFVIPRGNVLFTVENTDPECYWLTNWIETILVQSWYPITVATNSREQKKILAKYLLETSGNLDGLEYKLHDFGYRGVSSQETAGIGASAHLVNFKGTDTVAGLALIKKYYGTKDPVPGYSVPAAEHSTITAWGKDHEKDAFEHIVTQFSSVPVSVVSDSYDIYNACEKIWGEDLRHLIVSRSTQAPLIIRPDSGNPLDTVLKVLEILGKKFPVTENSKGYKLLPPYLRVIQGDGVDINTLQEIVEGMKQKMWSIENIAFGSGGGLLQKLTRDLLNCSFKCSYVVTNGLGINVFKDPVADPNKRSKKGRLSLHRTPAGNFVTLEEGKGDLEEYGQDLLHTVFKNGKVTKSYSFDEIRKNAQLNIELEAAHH

In general, IC50 refers to the midpoint of a concentration-inhibition curve. For the molecule `COc1cc(F)ccc1NS(=O)(=O)c1ccc(CNC(=O)c2cc3cnccc3[nH]2)cc1` [N-({4-[(4-fluoro-2-methoxyphenyl)sulfamoyl]phenyl}methyl)-1H-pyrrolo[3,2-c]pyridine-2-carboxamide], the IC50 was 3140 nM in test [1] and more than 30000 nM in test [2] (SRB assay).
In the case of `Cc1cc(F)ccc1S(=O)(=O)c1ccc(CNC(=O)c2cnc3[nH]ncc3c2)cc1` [N-({4-[(4-fluoro-2-methylbenzene)sulfonyl]phenyl}methyl)-1H-pyrazolo[3,4-b]pyridine-5-carboxamide], the IC50 in test [1] was 78.8 nM; in test [2] (SRB) it was 98.3 nM.
Consider `Cc1cc(F)ccc1S(=O)(=O)c1ccc(CNC(=O)c2cc3cnccc3[nH]2)cc1` [N-({4-[(4-fluoro-2-methylbenzene)sulfonyl]phenyl}methyl)-1H-pyrrolo[3,2-c]pyridine-2-carboxamide], for which the IC50 was found to be 19 nM in test [1] and 27 nM in test [2] (SRB assay).
On to `COc1cc(S(=O)(=O)c2ccc(CNC(=O)c3cnc4[nH]ncc4c3)cc2)ccc1F` [N-({4-[(4-fluoro-3-methoxybenzene)sulfonyl]phenyl}methyl)-1H-pyrazolo[3,4-b]pyridine-5-carboxamide], for which the IC50 in test [1] is 23.9 nM; in test [2] (SRB), 11.5 nM.
Taken in the same sequence, the figures for `COc1cc(S(=O)(=O)c2ccc(CNC(=O)c3cc4ccncc4s3)cc2)ccc1F` [N-({4-[(4-fluoro-3-methoxybenzene)sulfonyl]phenyl}methyl)thieno[2,3-c]pyridine-2-carboxamide] were 9 nM and 3.1 nM.
As for `Cc1cc(S(=O)(=O)c2ccc(CNC(=O)c3cc4cnccc4[nH]3)cc2)ccc1F` [N-({4-[(4-fluoro-3-methylbenzene)sulfonyl]phenyl}methyl)-1H-pyrrolo[3,2-c]pyridine-2-carboxamide], the IC50 in test [1] turned out to be 9 nM; in test [2] (SRB assay), 7 nM.
Turning to `Cc1cc(S(=O)(=O)c2ccc(CNC(=O)c3ccc4nccn4c3)cc2)ccc1F` [N-({4-[(4-fluoro-3-methylbenzene)sulfonyl]phenyl}methyl)imidazo[1,2-a]pyridine-6-carboxamide], the IC50 is 23.5 nM in test [1] and 7.14 nM in test [2] (SRB).
On to `Cc1cc(S(=O)(=O)c2ccc(CNC(=O)c3cc4ccncc4s3)cc2)ccc1F` [N-({4-[(4-fluoro-3-methylbenzene)sulfonyl]phenyl}methyl)thieno[2,3-c]pyridine-2-carboxamide], for which the figures for the IC50 in test [1] and in test [2] (SRB assay) were 7 nM and 2.9 nM, respectively.
For `O=C(NCc1ccc(S(=O)(=O)c2ccc(F)cc2)cc1)c1cc2ccncc2s1` [N-({4-[(4-fluorobenzene)sulfonyl]phenyl}methyl)thieno[2,3-c]pyridine-2-carboxamide] the same measures were 3 nM and 10 nM.
`CS(=O)(=O)c1ccc(S(=O)(=O)c2ccc(CNC(=O)c3cnc4[nH]ncc4c3)cc2)cc1` [N-({4-[(4-methanesulfonylbenzene)sulfonyl]phenyl}methyl)-1H-pyrazolo[3,4-b]pyridine-5-carboxamide]: the IC50 in test [1] was determined as 29.3 nM; in test [2] (SRB), 23.8 nM.
Regarding `CS(=O)(=O)c1ccc(S(=O)(=O)c2ccc(CNC(=O)c3cc4cnccc4[nH]3)cc2)cc1` [N-({4-[(4-methanesulfonylbenzene)sulfonyl]phenyl}methyl)-1H-pyrrolo[3,2-c]pyridine-2-carboxamide], the IC50 is 24 nM in test [1] and 12 nM in test [2] (SRB assay).
With `CS(=O)(=O)c1ccc(S(=O)(=O)c2ccc(CNC(=O)c3ccc4nccn4c3)cc2)cc1` [N-({4-[(4-methanesulfonylbenzene)sulfonyl]phenyl}methyl)imidazo[1,2-a]pyridine-6-carboxamide], the IC50 in test [1] was found to be 105 nM; in test [2] (SRB), 24.7 nM.
For `COc1cc(C)c(S(=O)(=O)c2ccc(CNC(=O)c3cnc4[nH]ncc4c3)cc2)cc1C` [N-({4-[(4-methoxy-2,5-dimethylbenzene)sulfonyl]phenyl}methyl)-1H-pyrazolo[3,4-b]pyridine-5-carboxamide] the same measures were 36.8 nM and 23.6 nM.
Taken in the same sequence, the figures for `COc1ccc(S(=O)(=O)c2ccc(CNC(=O)c3cnc4[nH]ncc4c3)cc2)c(C)c1` [N-({4-[(4-methoxy-2-methylbenzene)sulfonyl]phenyl}methyl)-1H-pyrazolo[3,4-b]pyridine-5-carboxamide] were 29 nM and 55.5 nM.
For the molecule `COc1ccc(S(=O)(=O)c2ccc(CNC(=O)c3cc4cnccc4[nH]3)cc2)c(C)c1` [N-({4-[(4-methoxy-2-methylbenzene)sulfonyl]phenyl}methyl)-1H-pyrrolo[3,2-c]pyridine-2-carboxamide], the IC50 in test [1] and in test [2] (SRB assay) was 24 nM throughout.
Take `COc1ccc(S(=O)(=O)c2ccc(CNC(=O)c3cc4ccncc4o3)cc2)c(C)c1` [N-({4-[(4-methoxy-2-methylbenzene)sulfonyl]phenyl}methyl)furo[2,3-c]pyridine-2-carboxamide]: the IC50 came out at 21.6 nM in test [1] and 35.1 nM in test [2] (SRB).
Consider `COc1ccc(NS(=O)(=O)c2ccc(CNC(=O)c3cc4cnccc4[nH]3)cc2)c(C)c1` [N-({4-[(4-methoxy-2-methylphenyl)sulfamoyl]phenyl}methyl)-1H-pyrrolo[3,2-c]pyridine-2-carboxamide], for which the IC50 in test [1] was 1450 nM; in test [2] (SRB assay), more than 30000 nM.
Consider `COc1c(C)cc(S(=O)(=O)c2ccc(CNC(=O)c3cnc4[nH]ncc4c3)cc2)cc1C` [N-({4-[(4-methoxy-3,5-dimethylbenzene)sulfonyl]phenyl}methyl)-1H-pyrazolo[3,4-b]pyridine-5-carboxamide], for which the IC50 in test [1] was 5 nM; in test [2] (SRB), 1.85 nM.
With `COc1ccc(S(=O)(=O)c2ccc(CNC(=O)c3cc4cnccc4[nH]3)cc2)cc1C` [N-({4-[(4-methoxy-3-methylbenzene)sulfonyl]phenyl}methyl)-1H-pyrrolo[3,2-c]pyridine-2-carboxamide], the concentration for half-maximal inhibition (IC50) in test [1] is 10 nM; in test [2] (SRB assay) it was 2 nM.
In the case of `COc1ccc(S(=O)(=O)c2ccc(CNC(=O)c3ccc4nccn4c3)cc2)cc1C` [N-({4-[(4-methoxy-3-methylbenzene)sulfonyl]phenyl}methyl)imidazo[1,2-a]pyridine-6-carboxamide], the figures for the IC50 in test [1] and in test [2] (SRB) were 14.1 nM and 5.32 nM, respectively.
Turning to `COc1ccc(S(=O)(=O)c2ccc(CNC(=O)c3cc4cnccc4[nH]3)cc2)cc1` [N-({4-[(4-methoxybenzene)sulfonyl]phenyl}methyl)-1H-pyrrolo[3,2-c]pyridine-2-carboxamide], the IC50 came to 11 nM in test [1] and 9 nM in test [2] (SRB assay).
With `COc1ccc(S(=O)(=O)c2ccc(CNC(=O)c3cc4ccncc4o3)cc2)cc1` [N-({4-[(4-methoxybenzene)sulfonyl]phenyl}methyl)furo[2,3-c]pyridine-2-carboxamide], the figures for the IC50 in test [1] and in test [2] (SRB) were 5.5 nM and 6 nM, respectively.
For `COc1ccc(S(=O)(=O)c2ccc(CNC(=O)c3ccc4nccn4c3)cc2)cc1` [N-({4-[(4-methoxybenzene)sulfonyl]phenyl}methyl)imidazo[1,2-a]pyridine-6-carboxamide] the same measures were 9.74 nM and 8.66 nM.
Consider `COc1ccc(S(=O)(=O)c2ccc(CNC(=O)c3cc4ccncc4s3)cc2)cc1` [N-({4-[(4-methoxybenzene)sulfonyl]phenyl}methyl)thieno[2,3-c]pyridine-2-carboxamide], for which the IC50 in test [1] was 5 nM; in test [2] (SRB assay) it was 2.7 nM.
In the case of `Cc1ccc(S(=O)(=O)c2ccc(CNC(=O)c3cc4cnccc4[nH]3)cc2)cc1` [N-({4-[(4-methylbenzene)sulfonyl]phenyl}methyl)-1H-pyrrolo[3,2-c]pyridine-2-carboxamide], the IC50 in test [1] came to 6 nM; in test [2] (SRB assay), 9 nM.
With `Cc1ccc(S(=O)(=O)c2ccc(CNC(=O)c3cc4ccncc4o3)cc2)cc1` [N-({4-[(4-methylbenzene)sulfonyl]phenyl}methyl)furo[2,3-c]pyridine-2-carboxamide], the IC50 in test [1] worked out at 121 nM; in test [2] (SRB), 6 nM.
For `Cc1ccc(S(=O)(=O)c2ccc(CNC(=O)c3ccc4nccn4c3)cc2)cc1` [N-({4-[(4-methylbenzene)sulfonyl]phenyl}methyl)imidazo[1,2-a]pyridine-6-carboxamide] the same measures were 17.6 nM and 12 nM.
Regarding `Cc1ccc(S(=O)(=O)c2ccc(CNC(=O)c3cc4ccncc4s3)cc2)cc1` [N-({4-[(4-methylbenzene)sulfonyl]phenyl}methyl)thieno[2,3-c]pyridine-2-carboxamide], the IC50 in test [1] and in test [2] (SRB assay) was 5 nM each time.
Consider `O=C(NCc1ccc(S(=O)(=O)c2ccc(-c3ccccc3)cc2)cc1)c1ccc2ncsc2c1` [N-({4-[(4-phenylbenzene)sulfonyl]phenyl}methyl)-1,3-benzothiazole-6-carboxamide], for which the IC50 in test [1] was 20.7 nM; in test [2] (SRB), 100 to 1000 nM.
Taken in the same sequence, the figures for `O=C(NCc1ccc(S(=O)(=O)c2ccc(-c3ccccc3)cc2)cc1)c1cc2cnccc2[nH]1` [N-({4-[(4-phenylbenzene)sulfonyl]phenyl}methyl)-1H-pyrrolo[3,2-c]pyridine-2-carboxamide] were 31 nM and 13.3 nM.
For `O=C(NCc1ccc(S(=O)(=O)c2ccc(-c3ccccc3)cc2)cc1)c1cc2ccncc2o1` [N-({4-[(4-phenylbenzene)sulfonyl]phenyl}methyl)furo[2,3-c]pyridine-2-carboxamide] the same measures were 3.7 nM and 6.9 nM.
Taken in the same sequence, the figures for `O=C(NCc1ccc(S(=O)(=O)CCCCc2ccccc2)cc1)c1cc2cnccc2[nH]1` [N-({4-[(4-phenylbutane)sulfonyl]phenyl}methyl)-1H-pyrrolo[3,2-c]pyridine-2-carboxamide] were 216 nM and 71.5 nM.

(Values after patent US12336981B2, “Compounds and compositions for the inhibition of NAMPT” (Valo Health, Inc., priority 2010, dated 2025).)
